Assay results from BigSolDB 2.1.

COC(=O)[C@@H](N)CC(C)C.Cl
solubility (mole fraction)
Details	283.15 K	288.15 K	293.15 K	298.15 K	303.15 K	308.15 K	313.15 K	318.15 K	323.15 K	328.15 K
in 1,4-dioxane	–	0.0539	0.0579	0.0621	0.0715	0.0799	0.0918	0.11	0.127	0.158
in 2-butanone	0.00114	0.00125	0.00141	0.00158	0.00186	0.00238	0.00297	0.00388	0.00524	–
in acetone	0.00343	0.00389	0.00451	0.00562	0.00661	0.00806	0.01	0.0129	0.0172	–
in acetonitrile	0.00109	0.00154	0.00205	0.00313	0.00401	0.0051	0.00776	0.011	0.0162	–
in dimethyl carbonate	0.000287	0.000319	0.00038	0.000478	0.000629	0.000924	0.00127	0.00167	0.00213	–
in ethyl acetate	0.000226	0.000237	0.000277	0.000342	0.000421	0.000593	0.000729	0.000892	0.00124	–
in isopropyl acetate	0.000136	0.000152	0.000178	0.000219	0.000246	0.00029	0.000358	0.000429	0.000561	–
in methyl acetate	0.000388	0.000472	0.000629	0.000834	0.00105	0.00138	0.0019	0.00244	0.00347	–
in n-butanol	0.0885	0.0916	0.0983	0.109	0.123	0.139	0.155	0.171	0.196	–
in n-hexane	0.000296	0.000331	0.000371	0.000433	0.000505	0.00063	0.000782	0.000983	0.0012	–
in n-pentanol	0.0571	0.062	0.0696	0.0787	0.0917	0.104	0.121	0.137	0.156	–
in n-propyl acetate	0.00123	0.00129	0.00145	0.00189	0.00234	0.00292	0.0036	0.00455	0.00541	–
